Experimental data taken from patent publication US7495104B2, “Quinoline or quinazoline derivatives inhibiting auto-phosphorylation of fibroblast growth factor receptors” (Kirin Beer Kabushiki Kaisha, priority 2001, dated 2009).
pIC50: −log10 of the molar value.

target: Bek (Homo sapiens, UniProt P21802); assay: Inhibitory activity against Bek-autophosphorylation using ELISA method in OCUM-2MD3 cells; format: cell-based; conditions: 1 hr with compound, read-out: IC50 (concentration necessary for inhibiting 50% of Bek-phosphorylation)
Method in brief: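 OCUM-2MD3 human scirrhous gastric cancer cells in 0.1% FCS were exposed to compound for 1 hr at 37° C, then lysed. Phospho-tyrosine proteins were captured with anti-phosphotyrosine antibody, probed with anti-Bek antibody and peroxidase read-out (A450). Positive control (1000 nM) set 0%, untreated 100%; IC50 from multi-level dilutions.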

Chain of Bek (P21802 431-767 limits assumed): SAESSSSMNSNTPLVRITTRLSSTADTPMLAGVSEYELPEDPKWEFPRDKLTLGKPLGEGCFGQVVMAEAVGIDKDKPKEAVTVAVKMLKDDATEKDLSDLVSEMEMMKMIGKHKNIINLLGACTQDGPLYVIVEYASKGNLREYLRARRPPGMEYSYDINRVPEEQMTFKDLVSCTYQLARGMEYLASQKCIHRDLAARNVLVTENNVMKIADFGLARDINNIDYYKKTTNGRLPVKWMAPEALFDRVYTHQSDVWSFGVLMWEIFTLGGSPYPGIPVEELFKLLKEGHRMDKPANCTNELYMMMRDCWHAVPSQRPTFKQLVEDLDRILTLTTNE

SMILES	pIC50
COc1cc2c(Oc3ccc(NC(=O)NCCC(C)(C)C)cc3)ccnc2cc1OCCCN1CCC(N2CCCCC2)CC1 [Compound 248, 1-{4-[7-(3-[1,4′]Bipiperidinyl-1′-yl-propoxy)-6-methoxy-quinolin-4-yloxy]-phenyl}-3-(3,3-dimethyl-butyl)-urea]	7.90
COc1cc2c(Oc3ccc(NC(=O)NCCC(C)(C)C)cc3)ccnc2cc1OCCCN1CCC(N2CCCC2)CC1 [Compound 249, 1-(3,3-Dimethyl-butyl)-3-(4-{6-methoxy-7-[3-(4-pyrrolidin-1-yl-piperidin-1-yl)-propoxy]-quinolin-4-yloxy}-phenyl)-urea]	> 8.00
COc1cc2c(Oc3ccc(NC(=O)NCCC(C)(C)C)cc3)ccnc2cc1OCC(O)CN1CC(C)OC(C)C1 (stereo not shown) [Compound 250, 1-(3,3-Dimethyl-butyl)-3-(4-{7-[3-(2,6-dimethyl-morpholin-4-yl)-2-hydroxy-propoxy]-6-methoxy-quinolin-4-yloxy}-phenyl)-urea]	> 8.00
COc1cc2c(Oc3ccc(NC(=O)NCCC(C)(C)C)cc3)ccnc2cc1OCC(O)CN1CC(C)CC(C)C1 (stereo not shown) [Compound 251, 1-(3,3-Dimethyl-butyl)-3-(4-{7-[3-(3,5-dimethyl-piperidin-1-yl)-2-hydroxy-propoxy]-6-methoxy-quinolin-4-yloxy}-phenyl)-urea]	7.68
COc1cc2c(Oc3ccc(NC(=O)NCCC(C)(C)C)cc3)ccnc2cc1OCC(O)CN1CCC(c2ccccc2)CC1 (stereo not shown) [Compound 252, 1-(3,3-Dimethyl-butyl)-3-(4-{7-[2-hydroxy-3-(4-phenyl-piperidin-1-yl)-propoxy]-6-methoxy-quinolin-4-yloxy}-phenyl)-urea]	7.37
COc1cc2c(Oc3ccc(Nc4ccc(C(C)(C)C)cc4)cc3)ccnc2cc1OCC(O)CN1CC(C)OC(C)C1 (stereo not shown) [Compound 253, 1-{4-[4-(4-Tert-butyl-phenylamino)-phenoxy]-6-methoxy-quinolin-7-yloxy}-3-(2,6-dimethyl-morpholin-4-yl)-propan-2-ol]	7.55
COc1cc2c(Oc3ccc(Nc4ccc(C(C)(C)C)cc4)cc3)ccnc2cc1OCC(O)CN1CC(C)CC(C)C1 (stereo not shown) [Compound 254, 1-{4-[4-(4-Tert-butyl-phenylamino)-phenoxy]-6-methoxy-quinolin-7-yloxy}-3-(3,5-dimethyl-piperidin-1-yl)-propan-2-ol]	7.03
COc1cc2c(Oc3ccc(Nc4ccc(C(C)(C)C)cc4)cc3)ccnc2cc1OCC(O)CN1CCC(N2CCCCC2)CC1 (stereo not shown) [Compound 258, 1-[1,4′]Bipiperidineyl-1′-yl-3-{4-[4-(4-tert-butyl-phenylamino)-phenoxy]-6-methoxy-quinolin-7-yloxy}-propan-2-ol]	6.96
COc1cc2c(Oc3ccc(Nc4ccc(C(C)(C)C)cc4)cc3)ccnc2cc1OCC(O)CN1CCC(N2CCCC2)CC1 (stereo not shown) [Compound 259, 1-{4-[4-(4-Tert-butyl-phenylamino)-phenoxy]-6-methoxy-quinolin-7-yloxy}-3-(4-pyrrolidin-1-yl-piperidin-1-yl)-propan-2-ol]	7.33
COc1cc2c(Oc3ccc(NC(=O)NCCC(C)(C)C)cc3)ccnc2cc1OCC(O)CN1CCC(Cc2ccccc2)CC1 (stereo not shown) [Compound 260, 1-(4-{7-[3-(4-Benzyl-piperidin-1-yl)-2-hydroxy-propoxy]-6-methoxy-quinolin-4-yloxy}-phenyl)-3-(3,3-dimethyl-butyl)-urea]	7.57
COc1cc2c(Oc3ccc(NC(=O)NCCC(C)(C)C)cc3)ccnc2cc1OCC(O)CN1CCC(N2CCCCC2)CC1 (stereo not shown) [Compound 261, 1-{4-[7-(3-[1,4′]Bipiperidineyl-1′-yl-2-hydroxy-propoxy)-6-methoxy-quinolin-4-yloxy]-phenyl}-3-(3,3-dimethyl-butyl)-urea]	> 8.00
COc1cc2c(Oc3ccc(NC(=O)NCCC(C)(C)C)cc3)ccnc2cc1OCC(O)CN1CCC(N2CCCC2)CC1 (stereo not shown) [Compound 262, 1-(3,3-Dimethyl-butyl)-3-(4-{7-[2-hydroxy-3-(4-pyrrolidin-1-yl-piperidin-1-yl)-propoxy]-6-methoxy-quinolin-4-yloxy}-phenyl)-urea]	> 8.00
COc1cc2c(Oc3ccc(NC(=O)NCCC(C)(C)C)cc3)ccnc2cc1OCCCN1CCC[C@H]1CO [Compound 263, 1-(3,3-Dimethyl-butyl)-3-(4-{7-[3-(2-hydroxymethyl-pyrrolidin-1-yl)-propoxy]-6-methoxy-quinolin-4-yloxy}-phenyl)-urea]	> 8.00
COc1cc2c(Oc3ccc(NC(=O)NCCC(C)(C)C)cc3)ccnc2cc1OCCCN1CCC(CO)CC1 [Compound 265, 1-(3,3-Dimethyl-butyl)-3-(4-{7-[3-(4-hydroxymethyl-piperidin-1-yl)-propoxy]-6-methoxy-quinolin-4-yloxy}-phenyl)-urea]	> 8.00
COc1cc2c(Oc3ccc(NC(=O)NCCC(C)(C)C)c(Cl)c3)ccnc2cc1OCCCN1CCC(CO)CC1 [Compound 266, 1-(2-Chloro-4-{7-[3-(4-hydroxymethyl-piperidin-1-yl)-propoxy]-6-methoxy-quinolin-4-yloxy}-phenyl)-3-(3,3-dimethyl-butyl)-urea]	7.96
COc1cc2c(Oc3ccc(NC(=O)NCCC(C)(C)C)c(Cl)c3)ccnc2cc1OCCCN1CCC(CCO)CC1 [Compound 267, 1-[2-Chloro-4-(7-{3-[4-(2-hydroxy-ethyl)-piperidin-1-yl]-propoxy}-6-methoxy-quinolin-4-yloxy)-phenyl]-3-(3,3-dimethyl-butyl)-urea]	7.57
COc1cc2c(Oc3ccc(NC(=O)NCCC(C)(C)C)c(Cl)c3)ccnc2cc1OCCCN1CCC(O)CC1 [Compound 268, 1-(2-Chloro-4-{7-[3-(4-hydroxy-piperidin-1-yl)-propoxy]-6-methoxy-quinolin-4-yloxy}-phenyl)-3-(3,3-dimethyl-butyl)-urea]	7.80
COc1cc2c(Oc3ccc(NC(=O)NCCC(C)(C)C)cc3)ccnc2cc1OCCCN(C)CCO [Compound 269, 1-(3,3-Dimethyl-butyl)-3-[4-(7-{3-[(2-hydroxy-ethyl)-methyl-amino]-propoxy}-6-methoxy-quinolin-4-yloxy)-phenyl]-urea]	7.45
COc1cc2c(Oc3ccc(Nc4ccc(C(C)(C)C)cc4)cc3F)ccnc2cc1OCCCN1CCC(CO)CC1 [Compound 270, [1-(3-{4-[4-(4-Tert-butyl-phenylamino)-2-fluoro-phenoxy]-6-methoxy-quinolin-7-yloxy}-propyl)-piperidin-4-yl]-methanol]	6.52
COCCNCCCOc1cc2nccc(Oc3ccc(NC(=O)NCCC(C)(C)C)cc3)c2cc1OC [Compound 271, 1-(3,3-Dimethyl-butyl)-3-(4-{6-methoxy-7-[3-(2-methoxy-ethylamino)-propoxy]-quinolin-4-yloxy}-phenyl)-urea]	7.48
COc1cc2c(Oc3ccc(Nc4ccc(C(C)(C)C)cc4)cc3F)ccnc2cc1OCCCN1CCC(CCO)CC1 [Compound 272, 2-[1-(3-{4-[4-(4-Tert-butyl-phenylamino)-2-fluoro-phenoxy]-6-methoxy-quinolin-7-yloxy}-propyl)-piperidin-4-yl]-ethanol]	6.82
COc1cc2c(Oc3ccc(Nc4ccc(C(C)(C)C)cc4)cc3F)ccnc2cc1OCCCN1CCC(O)CC1 [Compound 273, 1-(3-{4-[4-(4-Tert-butyl-phenylamino)-2-fluoro-phenoxy]-6-methoxy-quinolin-7-yloxy}-propyl)-piperidin-4-ol]	6.79
